The source of these data is publication PMC3271384 (Molecular Genetics and Metabolism, 2012).

Common to all, as to format: binding
The target in assay [1] is T1, AGT-Mi (Homo sapiens, UniProt P21549, I340M/P11L/W108R).
T1 sequence (P21549 1-392 P11L/W108R/I340M): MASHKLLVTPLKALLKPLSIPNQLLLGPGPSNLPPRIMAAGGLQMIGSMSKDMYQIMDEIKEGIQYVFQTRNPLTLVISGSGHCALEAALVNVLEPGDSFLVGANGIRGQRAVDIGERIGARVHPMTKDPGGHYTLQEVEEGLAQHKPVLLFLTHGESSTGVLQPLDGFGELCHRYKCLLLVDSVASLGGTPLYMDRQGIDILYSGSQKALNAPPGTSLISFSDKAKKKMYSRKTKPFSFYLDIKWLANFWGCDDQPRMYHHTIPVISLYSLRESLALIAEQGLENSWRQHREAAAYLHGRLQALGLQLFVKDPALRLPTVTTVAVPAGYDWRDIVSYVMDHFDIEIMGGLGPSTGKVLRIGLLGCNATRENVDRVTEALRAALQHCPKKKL
In words: CD signal at […] nm titration of apoenzyme.

For assay [2], the target named is T2, AGT-Ma (Homo sapiens, UniProt P21549, P319L).
T2 sequence (P21549 1-392 P319L): T1 sequence (P21549 1-392 P11L/W108R/I340M) with L11P, R108W, P319L, M340I
In words: quenching of intrinsic fluorescence of apoenzyme.

The target in assay [3] is T3, AGT-Ma (Homo sapiens, UniProt P21549, S158L).
T3 sequence (P21549 1-392 S158L): T1 sequence (P21549 1-392 P11L/W108R/I340M) with L11P, R108W, S158L, M340I
In words: CD signal at […] nm titration of apoenzyme.

Assay [4] deals with T4, AGT-Ma (Homo sapiens, UniProt P21549, S218L).
T4 sequence (P21549 1-392 S218L): T1 sequence (P21549 1-392 P11L/W108R/I340M) with L11P, R108W, S218L, M340I
In words: CD signal at […] nm titration of apoenzyme.

For assay [5], the target named is T5, AGT-Mi (Homo sapiens, UniProt P21549, G161S/I340M/P11L).
T5 sequence (P21549 1-392 P11L/G161S/I340M): T1 sequence (P21549 1-392 P11L/W108R/I340M) with R108W, G161S
In words: quenching of intrinsic fluorescence of apoenzyme.

Assay [6] deals with T6, AGT-Ma (Homo sapiens, UniProt P21549, S187F).
T6 sequence (P21549 1-392 S187F): T1 sequence (P21549 1-392 P11L/W108R/I340M) with L11P, R108W, S187F, M340I
In words: intrinsic fluorescence.

Assay [7] has as its target T7, AGT-Mi (Homo sapiens, UniProt P21549, G350D/I340M/P11L).
T7 sequence (P21549 1-392 P11L/I340M/G350D): T1 sequence (P21549 1-392 P11L/W108R/I340M) with R108W, G350D
In words: quenching of intrinsic fluorescence of apoenzyme.

Residue numbers refer to the chain shown, from its start.

For `Cc1ncc(COP(=O)(O)O)c(C=O)c1O` [PLP], the Kd (commonly the equilibrium constant for the complex coming apart) in assay [1] is 96000 ± 19000 nM; in assay [2] it was 190 ± 40 nM; in assay [3], 272000 ± 47000 nM; in assay [4], 24200 ± 100 nM; in assay [5], 460 ± 70 nM; in assay [6], less than 10 nM. Also, binding in assay [7] was put at a Kd of 31 ± 5 nM.
